Measured values as given in ChEMBL document CHEMBL1667820, “Synthesis and antitubercular evaluation of novel substituted aryl and thiophenyl tethered dihydro-6H-quinolin-5-ones” (2011).
Converted amounts (≈) assume the structure as drawn.

Test system: Mycobacterium tuberculosis
Assay: Antimycobacterial activity against Mycobacterium tuberculosis H37Rv by agar dilution method
Assay type: functional

`O=C1CCCc2nc(-c3ccccc3)ccc21` was tested, and the MIC was 12.5 µg/mL (≈ 56 µM).

In the case of `O=C1c2ccc(-c3ccc(Br)s3)nc2CCC1(CO)CO`, the MIC is reported as > 25 µg/mL.

In the case of `CC1(C)CC(=O)c2ccc(-c3cccs3)nc2C1`, the MIC is reported as 6.25 µg/mL (≈ 24.3 µM).

Compound `COc1ccc(-c2ccc3c(n2)CCCC3=O)cc1` has an MIC of 12.5 µg/mL (≈ 49.3 µM).

`Cc1ccc(-c2ccc3c(n2)CCCC3=O)cc1` gave an MIC of 12.5 µg/mL (≈ 52.7 µM).

In the case of `Cc1ccc(-c2ccc3c(n2)CCC(CO)(CO)C3=O)cc1`, the MIC is reported as > 25 µg/mL.

In the case of `O=C1c2ccc(-c3ccc(Cl)s3)nc2CCC1(CO)CO`, the MIC is reported as > 25 µg/mL.

In the case of `O=C1c2ccc(-c3cccs3)nc2CCC1(CO)CO`, the MIC is reported as > 25 µg/mL.

Work on `COc1ccc(-c2ccc3c(n2)CC(C)(C)CC3=O)cc1` yielded an MIC of 12.5 µg/mL (≈ 44.4 µM).

Work on `Cc1ccc(-c2ccc3c(n2)CC(C)(C)CC3=O)cc1` yielded an MIC of 6.25 µg/mL (≈ 23.6 µM).

Work on `NC(=O)c1cnccn1` [PYRAZINAMIDE] yielded an MIC of 50 µg/mL (≈ 406 µM).

`CC1(C)CC(=O)c2ccc(-c3ccccc3)nc2C1` showed an MIC of 12.5 µg/mL (≈ 49.7 µM).

Compound `CC1(C)CC(=O)c2ccc(-c3ccc(Cl)s3)nc2C1` has an MIC of 3.13 µg/mL (≈ 10.7 µM).

With `O=C1c2ccc(-c3ccccc3)nc2CCC1(CO)CO` the MIC was > 25 µg/mL.

For `CC1(C)CC(=O)c2ccc(-c3ccc(Br)s3)nc2C1`, the MIC was 3.13 µg/mL (≈ 9.31 µM).

For `O=C1CCCc2nc(-c3cccs3)ccc21`, the MIC was 12.5 µg/mL (≈ 54.5 µM).

With `CC[C@@H](CO)NCCN[C@@H](CC)CO` [ETHAMBUTOL] the MIC was 3.13 µg/mL (≈ 15.3 µM).

`O=C1CCCc2nc(-c3ccc(Cl)s3)ccc21` was tested, and the MIC was 6.25 µg/mL (≈ 23.7 µM).

Compound `NNC(=O)c1ccncc1` [ISONIAZID] has an MIC of 0.1 µg/mL (≈ 0.729 µM).

With `O=C1CCCc2nc(-c3ccc(Br)s3)ccc21` the MIC was 6.25 µg/mL (≈ 20.3 µM).

For `COc1ccc(-c2ccc3c(n2)CCC(CO)(CO)C3=O)cc1`, the MIC was > 25 µg/mL.
